Entries after “also recorded” stand apart in the source; their conditions may differ.
Test system: Han Wistar rats
Assay: Rising-dose tolerance study, single oral gavage
Assay type: in vivo, rat
Protocol: The following parameters and end points were evaluated in the rising-dose phase of this study: clinical signs, body weights, body weight changes, food consumption, and gross necropsy findings.
A total of 18 male and 24 female Han Wistar rats were received from Charles River Laboratories, Raleigh, N.C. The animals were examined and weighed on the day following receipt. The rising-dose phase animals were 8 weeks old and weighed between 176 g and 255 g at initiation of dosing and the multiple-dose phase animals were 8 weeks old and weighed between 172 g and 259 g at initiation of dosing.
For the rising-dose study, the test article was administered to the appropriate animals as a single dose by oral gavage. At least a 3-day observation period was maintained before proceeding to the next dose level/group. The dose volume for each animal was based on the most recent body weight measurement. The doses were given using a syringe with attached gavage cannula. The first day of dosing for each group was designated as Study Day 1.
The animals were removed from the cage and a detailed clinical observation was performed on the day of randomization and Days 1 to 8; 1 to 3 hours postdose on the day of dosing. Each animal was weighed on the day of randomization and Days 1 to 8. Food consumption was quantitatively measured for each animal weekly, starting Day −3, throughout the study.
Rising-dose study animals were subjected to a complete necropsy examination, which included evaluation of the carcass and musculoskeletal system; all external surfaces and orifices; cranial cavity and external surfaces of the brain; and thoracic, abdominal, and pelvic cavities with their associated organs and tissues. Necropsy examinations were conducted under the supervision of a board-certified veterinary pathologist.

[1] = 100, 550 or 1300 mg/kg single dose

CN(C)C(=O)COC(=O)Cc1ccc(OC(=O)c2ccc(NC(=N)N)cc2)cc1 [Camostat Mesilate, N,N-dimethylcarbamoylmethyl-4-(4-guanidinobenzoyloxy)phenylacetate methanesulfonate]
Clinical observation not considered test article related (550 mg/kg single dose): hair loss was observed in 1 animal
Necropsy observation not considered test article related (1300 mg/kg single dose, male): Dark discoloration of the thymus was observed in one 1300 mg/kg male
Clinical observation not considered a direct test article effect (1300 mg/kg single dose, possible aspiration during dosing): piloerection and abnormal breathing sounds were observed in 1 animal on Day 2
Body weight Days 1 to 8 [1]: All animals gained weight
Food consumption [1]: no significant changes in food consumption
Gross necropsy findings [1]: no significant gross necropsy findings
Test article-related clinical observations [1]: no test article-related clinical observations
Survival (single oral gavage 100, 550 or 1300 mg/kg, euthanasia Day 8, methanesulfonate): All animals survived to scheduled euthanasia; also recorded: No animals died
